In ChEMBL document CHEMBL1156048, “Design and optimisation of selective serotonin re-uptake inhibitors with high synthetic accessibility: part 2” (Bioorg Med Chem Lett, 2009) one finds IC50 and Ki data, which are given here for 23 molecules.

SMILES strings stand for the structures.

Holding throughout (type): cell-based
Test [1] addresses Sodium-dependent serotonin transporter (Homo sapiens, UniProt P31645). Briefly: Inhibition of serotonin reuptake at human serotonin transporter expressed in HEK293 cells after 5 mins by scintillation counting.
Test [2] addresses Sodium-dependent noradrenaline transporter (Homo sapiens, UniProt P23975). Kind of test: Inhibition of noradrenaline reuptake at human noradrenaline transporter expressed in HEK293 cells after 15 mins by scintillation counting.
For test [3], the target named is Sodium-dependent dopamine transporter (Homo sapiens, UniProt Q01959). Briefly: Inhibition of dopamine reuptake at human dopamine transporter expressed in HEK293 cells after 5 mins by scintillation counting.
In test [4] the target is Voltage-gated inwardly rectifying potassium channel KCNH2 (Homo sapiens, UniProt Q12809). Briefly: Displacement of [3H]dofetilide from human ERG expressed in HEK293 cells.
Chain of Voltage-gated inwardly rectifying potassium channel KCNH2 (Q12809 whole entry): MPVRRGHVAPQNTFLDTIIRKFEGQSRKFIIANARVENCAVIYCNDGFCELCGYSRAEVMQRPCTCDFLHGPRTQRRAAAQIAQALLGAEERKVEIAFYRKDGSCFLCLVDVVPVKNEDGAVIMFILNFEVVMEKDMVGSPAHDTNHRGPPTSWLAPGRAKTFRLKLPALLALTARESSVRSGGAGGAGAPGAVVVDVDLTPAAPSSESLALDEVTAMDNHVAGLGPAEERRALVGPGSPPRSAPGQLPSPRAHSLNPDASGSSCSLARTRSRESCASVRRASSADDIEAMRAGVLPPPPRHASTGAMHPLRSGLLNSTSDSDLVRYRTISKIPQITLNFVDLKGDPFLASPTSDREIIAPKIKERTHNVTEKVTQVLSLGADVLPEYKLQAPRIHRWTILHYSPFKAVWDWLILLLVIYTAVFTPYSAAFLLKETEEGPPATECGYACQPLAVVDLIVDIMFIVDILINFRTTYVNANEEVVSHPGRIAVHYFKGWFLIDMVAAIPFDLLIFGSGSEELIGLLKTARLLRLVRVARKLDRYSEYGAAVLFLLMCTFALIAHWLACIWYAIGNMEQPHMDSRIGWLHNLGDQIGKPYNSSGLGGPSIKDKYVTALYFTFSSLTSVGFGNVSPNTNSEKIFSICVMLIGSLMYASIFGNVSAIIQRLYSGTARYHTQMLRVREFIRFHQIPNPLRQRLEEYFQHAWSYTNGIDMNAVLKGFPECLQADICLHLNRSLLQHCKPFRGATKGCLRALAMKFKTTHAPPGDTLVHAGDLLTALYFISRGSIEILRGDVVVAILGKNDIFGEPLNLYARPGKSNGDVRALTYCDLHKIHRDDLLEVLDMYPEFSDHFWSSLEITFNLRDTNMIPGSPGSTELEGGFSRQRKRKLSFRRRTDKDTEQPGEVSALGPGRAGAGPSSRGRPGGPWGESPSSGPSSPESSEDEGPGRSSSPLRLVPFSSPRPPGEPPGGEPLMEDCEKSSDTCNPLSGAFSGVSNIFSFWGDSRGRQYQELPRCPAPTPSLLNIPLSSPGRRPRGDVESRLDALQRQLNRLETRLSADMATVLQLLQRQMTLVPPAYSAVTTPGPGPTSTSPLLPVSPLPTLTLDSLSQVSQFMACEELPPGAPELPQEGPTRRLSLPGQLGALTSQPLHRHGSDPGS

Chain of Sodium-dependent dopamine transporter (Q01959 whole entry): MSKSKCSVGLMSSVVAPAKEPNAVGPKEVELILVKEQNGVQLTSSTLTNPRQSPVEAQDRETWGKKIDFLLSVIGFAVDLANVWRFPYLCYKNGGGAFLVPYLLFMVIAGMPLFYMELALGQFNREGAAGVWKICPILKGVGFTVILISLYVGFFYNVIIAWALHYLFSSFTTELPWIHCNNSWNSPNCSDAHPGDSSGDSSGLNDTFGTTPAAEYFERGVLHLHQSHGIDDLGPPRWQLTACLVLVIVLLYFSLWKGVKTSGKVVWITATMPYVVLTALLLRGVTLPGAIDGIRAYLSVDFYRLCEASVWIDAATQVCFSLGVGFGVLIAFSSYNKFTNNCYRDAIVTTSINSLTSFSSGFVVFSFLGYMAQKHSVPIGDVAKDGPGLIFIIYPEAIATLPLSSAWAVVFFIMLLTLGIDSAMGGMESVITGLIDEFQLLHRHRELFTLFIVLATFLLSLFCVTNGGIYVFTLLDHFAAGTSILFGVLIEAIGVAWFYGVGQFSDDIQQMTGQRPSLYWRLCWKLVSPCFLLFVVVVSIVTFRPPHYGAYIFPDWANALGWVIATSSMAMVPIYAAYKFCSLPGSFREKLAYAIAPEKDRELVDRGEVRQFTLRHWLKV
Chain of Sodium-dependent noradrenaline transporter (P23975 whole entry): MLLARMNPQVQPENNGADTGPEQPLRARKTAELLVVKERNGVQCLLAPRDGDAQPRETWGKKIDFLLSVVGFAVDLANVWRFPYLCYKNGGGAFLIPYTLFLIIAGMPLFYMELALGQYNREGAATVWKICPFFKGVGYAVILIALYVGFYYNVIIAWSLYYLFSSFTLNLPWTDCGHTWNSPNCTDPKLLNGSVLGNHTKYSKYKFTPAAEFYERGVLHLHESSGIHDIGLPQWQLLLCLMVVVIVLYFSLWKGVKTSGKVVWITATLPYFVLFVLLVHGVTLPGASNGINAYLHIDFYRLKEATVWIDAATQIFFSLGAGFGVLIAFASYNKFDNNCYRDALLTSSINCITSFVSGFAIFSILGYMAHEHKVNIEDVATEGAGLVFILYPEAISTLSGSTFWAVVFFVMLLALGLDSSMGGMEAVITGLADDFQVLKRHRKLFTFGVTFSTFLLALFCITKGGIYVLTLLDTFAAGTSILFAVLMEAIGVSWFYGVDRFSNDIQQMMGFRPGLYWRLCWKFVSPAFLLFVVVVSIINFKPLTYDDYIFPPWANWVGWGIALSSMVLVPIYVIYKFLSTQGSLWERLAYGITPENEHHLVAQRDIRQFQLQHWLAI
Chain of Sodium-dependent serotonin transporter (P31645 whole entry): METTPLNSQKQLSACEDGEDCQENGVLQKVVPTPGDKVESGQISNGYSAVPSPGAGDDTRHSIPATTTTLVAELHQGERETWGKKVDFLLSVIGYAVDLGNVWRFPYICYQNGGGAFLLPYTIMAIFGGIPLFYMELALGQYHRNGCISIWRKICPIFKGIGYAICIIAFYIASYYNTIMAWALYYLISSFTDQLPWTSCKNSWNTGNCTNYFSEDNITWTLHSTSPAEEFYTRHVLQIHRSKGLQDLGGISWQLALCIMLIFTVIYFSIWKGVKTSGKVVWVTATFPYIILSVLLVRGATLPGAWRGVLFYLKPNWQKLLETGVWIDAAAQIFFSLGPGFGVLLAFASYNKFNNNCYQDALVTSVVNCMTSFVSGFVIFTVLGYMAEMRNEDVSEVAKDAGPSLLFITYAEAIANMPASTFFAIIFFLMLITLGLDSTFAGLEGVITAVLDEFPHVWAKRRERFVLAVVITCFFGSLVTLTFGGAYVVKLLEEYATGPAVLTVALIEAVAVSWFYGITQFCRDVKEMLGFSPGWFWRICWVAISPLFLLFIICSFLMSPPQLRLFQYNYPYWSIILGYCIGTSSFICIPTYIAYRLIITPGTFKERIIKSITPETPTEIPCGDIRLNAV

One may read the IC50 as the concentration that inhibits the measured activity by half. For the molecule `CCCN(C(=O)c1ccc2ccccc2c1)C1CCNCC1`, the 50% inhibitory concentration (IC50) in test [1] is 0.0283 µM; in test [2] it was > 40 µM; in test [3] it was > 40 µM.

`CC(C)N(C(=O)c1ccc2ccccc2c1)[C@@H]1CCNC1`: the concentration for half-maximal inhibition (IC50) was 0.015 µM in test [1], 7.5 µM in test [2] and > 14 µM in test [3].

In the case of `Cc1c(C(=O)N(CC(C)(C)C)[C@H]2CCNC2)ccc(Cl)c1Cl`, the IC50 in test [1] was 0.015 µM; in test [2], 0.357 µM; in test [3], > 28 µM.

One may read the Ki as a dissociation constant, usually derived from enzyme kinetics or from competition with a known ligand. The low end stands for a stronger hold on the target, the high end for a looser hold on the target. For the molecule `CS(=O)(=O)N(Cc1ccc2ccccc2c1)[C@@H]1CCNC1`, the figures for the 50% inhibitory concentration (IC50) in test [1], in test [2] and in test [3] were 0.017 µM, 7 µM and > 68 µM, respectively. In addition, the Ki in test [4] worked out at 4.2 µM.

As to `CCC(=O)N(Cc1ccc2ccccc2c1)C1CCNCC1`, the IC50 is 0.001 µM in test [1], 1.3 µM in test [2] and 0.339 µM in test [3]. The Ki in test [4] was determined as 12 µM.

`c1cnc(N(Cc2ccc3ccccc3c2)C2CCNCC2)nc1`: the IC50 in test [1] is 0.01 µM; in test [2] it was 1.2 µM; in test [3], 1.3 µM.

For `O=C(c1ccc2ccccc2c1)N(C1CCCC1)[C@@H]1CCNC1`, the half-inhibitory concentration (IC50) in test [1] amounted to 0.012 µM; in test [2] it was 0.677 µM; in test [3], 7.4 µM.

With `Cc1c(C(=O)N(C(C)C)[C@@H]2CCNC2)ccc(Cl)c1Cl`, the half-maximal inhibitory concentration (IC50) in test [1] was 0.007 µM; in test [2], 5.7 µM; in test [3], > 40 µM.

Consider `CC(C)CN(C(=O)c1ccc2ccccc2c1)[C@H]1CCNC1`, for which the IC50 in test [1] is 0.003 µM; in test [2], 0.024 µM; in test [3] it was 0.744 µM.

On to `CN(C(=O)c1ccc(Cl)c(Cl)c1)[C@@H]1CCNC1`, for which the IC50 in test [1] is > 0.4 µM.

Consider `CS(=O)(=O)N(Cc1ccc2ccccc2c1)[C@H]1CCNC1`, for which the half-inhibitory concentration (IC50) is 0.0035 µM in test [1], 0.37 µM in test [2] and 2.8 µM in test [3]. The same molecule registered a Ki in test [4] of 11 µM.

For the molecule `CC(=O)N(Cc1ccc2ccccc2c1)C1CCNCC1`, the values for the 50% inhibitory concentration (IC50) in test [1], in test [2] and in test [3] were 0.0045 µM, 8.9 µM and 1.5 µM, respectively. The inhibition constant (Ki) in test [4] was > 20 µM.

`Cc1c(C(=O)N(C)[C@@H]2CCNC2)ccc(Cl)c1Cl` had a half-maximal inhibitory concentration (IC50) in test [1] of 0.058 µM.

For `CS(=O)(=O)N(Cc1ccc2ccccc2c1)C1CCNCC1`, the results for the 50% inhibitory concentration (IC50) in test [1], in test [2] and in test [3] were 0.0035 µM, 2.5 µM and 4.9 µM, respectively. Moreover, the affinity in test [4] corresponds to a Ki of 3.2 µM.

Turning to `O=C(c1ccc2ccccc2c1)N(C1CCC1)[C@@H]1CCNC1`, the IC50 is 0.009 µM in test [1], 6 µM in test [2] and 5.8 µM in test [3].

On to `CCN(C(=O)c1ccc(Cl)c(Cl)c1C)[C@@H]1CCNC1`, for which the half-inhibitory concentration (IC50) was 0.01 µM in test [1], 17.4 µM in test [2] and > 40 µM in test [3].

`CCC(=O)N(Cc1ccc2ccccc2c1)[C@@H]1CCNC1`: the half-inhibitory concentration (IC50) in test [1] was determined as 0.0024 µM; in test [2], 0.224 µM; in test [3], 0.266 µM.

In the case of `Cc1c(CN([C@@H]2CCNC2)S(C)(=O)=O)ccc2cc(F)ccc12`, the figures for the concentration for half-maximal inhibition (IC50) in test [1], in test [2] and in test [3] were 0.0046 µM, 0.735 µM and > 28 µM, respectively. Further, the affinity in test [4], expressed as Ki, was 1.6 µM.

On to `O=C(NC1CCNCC1)c1ccc2ccccc2c1`, for which the half-maximal inhibitory concentration (IC50) in test [1] is > 0.4 µM.

For `CC(C)CN(C(=O)c1ccc2ccccc2c1)[C@@H]1CCNC1`, the IC50 in test [1] was 0.005 µM; in test [2] it was 1.2 µM. Moreover, the Ki in test [4] amounted to 7 µM.

As to `CC(=O)N(Cc1ccc2ccccc2c1)[C@@H]1CCNC1`, the IC50 in test [1] was 0.0052 µM; in test [2] it was 0.726 µM; in test [3], > 12 µM.

As for `O=C(c1ccc2ccccc2c1)N(C1CCC1)C1CCNCC1`, the 50% inhibitory concentration (IC50) in test [1] was 0.01 µM; in test [2], > 40 µM; in test [3], > 40 µM. Besides, in test [4], the Ki was > 10 µM.

Regarding `c1ccc2cc(COC3CCNCC3)ccc2c1` [LITOXETINE], the values for the IC50 in test [1], in test [2] and in test [3] were 0.0059 µM, 1.4 µM and 6.7 µM, respectively.
